Reference: patent US8338622B2, “Heterocyclic compound” (Takeda Pharmaceutical Company Limited, priority 2008, dated 2012)

Tests used:
Zucker fa/fa rats = assay: Hypoglycemic action in Zucker fa/fa rats (Experimental Example 4A); type: in vivo, rat; conditions: 30 mg/kg oral for 2 weeks
Method: A hypoglycemic action of the compound of the present invention was evaluated using Zucker fa/fa rats.
Male 19-week-old Zucker fa/fa rats (Takeda Pharmaceutical Company Limited) were bred in group on CE-2 solid food (CLEA Japan, Inc.) until 12-week-old, thereafter bred on high-fat diet D06110702 (LSG Corporation) for acclimation under conditions with free access to food. At 19-week-old, the rats were grouped based on the body weight, blood glucose level, glycated hemoglobin level and blood RBP4 level value (6 per group). Thereafter, the test compound (Example 34) was orally administered at a dose of 30 mg/kg (solvent: 0.5% methylcellulose solution (5 mL/kg)) for 2 weeks. After 24 hr of the final administration of the compound, blood samples were collected from the tail vein, and plasma was separated. Using the collected plasma, (1) RBP4 concentration, (2) glycated hemoglobin level and (3) blood glucose level were measured. (1) was quantified according to the protocol described in Experimental Example 3. (2) was measured using Tosoh Corporation automatic glycohemoglobin analyzer (HLC-723 GHbV A1c2.2 or HLC-723G7 GHbV A1c2.2), and (3) was measured using Hitachi full-automatic analyzer (7070 or 7080), respectively.
A 0.5% methylcellulose solution (5 mL/kg) was orally administered to the control group. […] The results are shown in the following in mean±standard deviation (n=6). In the following Table, glycated hemoglobin change is obtained by subtracting the value before administration from that after administration.

human RBP4 = target: T1, human RBP4 (Homo sapiens, UniProt P02753); assay: Binding assay by Retinol-RBP4-TTR ELISA (human type ELISA); conditions: retinol 0.5 μM, read-out: human RBP4 binding inhibitory activity (IC50 nM)
T1 construct: the culture supernatant containing secreted/expressed hRBP4-His was recovered; His tag (His6, read from the HISENU oligo); made in house; host or cells: FreeStyle293 expression system (Invitrogen), secreted into the culture supernatant
Method: The action of the compound of the present invention to inhibit the binding between RBP4, and retinol and TTR was evaluated using the Retinol-RBP4-TTR ELISA (human type ELISA) system shown below.
The binding assay was performed by an ELISA system (Retinol-RBP4-TTR ELISA) for detecting retinol-RBP4-TTR conjugate by streptavidin-biotin reaction.
His-tagged human RBP4 used was prepared in the above-mentioned 1C.
Biotinylated human TTR used was prepared in the above-mentioned 1E.
Streptavidin (20 μl) (10 μg/ml Streptavidin type II (Wako Pure Chemical Industries, Ltd.), 10 mM Tris-HCl (pH 7.5), 10 mM NaCl) was added to a 384 well black maxisorp plate (Nunc), and the plate was subjected to centrifugation (1000 rpm, 1 min) and coated overnight at 4° C. The plate was washed twice with PBST (PBS, 0.05% Tween 20, 100 μl/well) and blocked with 25% Block Ace (Snow Brand Milk Products Co., Ltd., PBS, 100 μl/well). The plate was subjected to centrifugation (1000 rpm, 1 min) and incubated at room temperature for 4 hr or overnight at 4° C. The plate was washed twice with PBST (PBS, 0.05% Tween 20, 100 μl/well), and biotinylated human TTR (stock solution concentration 1.3 mg/ml) diluted 1000-fold with PBST was added at 20 μl/well. The plate was subjected to centrifugation (1000 rpm, 1 min) and stood still at room temperature for 1.5 hr or overnight at 4° C. The plate was washed 3 times with PEST (100 μl/well), and His-tagged human RBP4 (stock solution concentration 0.96 mg/ml) diluted 4000-fold with a reaction buffer (50 mM Tris-HCl, 150 mM NaCl, 0.005% Tween 20, 1 mM DTT, 0.1% BSA) was added at 10 μl/well. The dilution series (8 doses from 10 mM, 200-fold concentration) of the compound was prepared with DMSO, and 1 μl of each was added to a reaction buffer (200 μl) containing retinol (0.5 μM) (Sigma-Aldrich Co.). A reaction buffer (200 μl) containing retinol and added with DMSO was used as a positive control, and reaction buffer (200 μl) free of retinol and added with DMSO was used as a negative control. Mixed solutions of retinol and the compound were added to the plate at 15 μl/well. The mixture was stirred in a platemixer, subjected to centrifugation (1000 rpm, 1 min) and reacted at room temperature for 2 hr. A 35% Block Ace solution diluted with the reaction buffer was added at 10 μl/well, centrifuged (1000 rpm, 1 min) and reacted at room temperature for 30 min. The plate was washed 3 times with PBST (100 μl/well) and SuperSignal ELISA Femto Maximum Sensitivity Substrate reagent (PIERCE) was added at 30 μl/well, and the luminescence was measured by a platereader (Wallac).
The binding activity rate of the compound was determined by 100×(test compound value−negative control value)/(positive control value−negative control value). The binding inhibitory activity (IC50) was calculated from the binding activity rate at each compound concentration using a graph drawing software, Prism (GraphPad Software Inc.).

RBP4 = target: T2, RBP4 (Mus musculus, UniProt Q00724); assay: Blood RBP4 lowering action in C57BL/6J mouse, single oral administration; type: in vivo; conditions: plasma, mean±SD n=5; for RBP4 (% of initial/Control) 0 hr later: 0 hr value before administration, 50 mg/kg oral; for RBP4 (% of initial/Control) 4 hr later: 4 hr after 50 mg/kg oral; for RBP4 (% of initial/Control) 7 hr later: 7 hr after 50 mg/kg oral; for RBP4 (% of initial/Control) 24 hr later: 24 hr after 50 mg/kg oral
T2 construct: from tissue; host or cells: plasma of male C57BL/6J mice (Charles River Laboratories Japan Inc.)
Method: A blood RBP4 lowering action of the compound of the present invention was evaluated using C57BL/6J mouse.
Male 7- to 15-week-old C57BL/6J mice (Charles River Laboratories Japan Inc.) were individually bred for acclimation for 4-6 days under conditions with free access to CE-2 solid food (CLEA Japan, Inc.), and grouped based on the body weight (5 per group). The next day of grouping, blood samples were collected from the orbital venous plexus, and plasma was separated (0 hr value). Thereafter, the test compounds (Examples 1, 13, 15, 16, 17, 27 and 34) were orally administered at a dose of 50 mg/kg (solvent: 0.5% methylcellulose solution (10 mL/kg)). At 4, 7 and 24 hr after administration of the compounds, blood samples were collected from the orbital venous plexus, and plasma was separated. A 0.5% methylcellulose solution (10 mL/kg) was orally administered to the control group.
The RBP4 level of the collected plasma was measured by ELISA. RBP4 was quantified by the following steps using a rabbit, anti-mouse RBP4 polyclonal antibody (Hokudo Co., Ltd). A 96 well ELISA plate was coated with 50 μg/ml of the antibody (100 μL) and stood at 4° C. overnight. After blocking with BlockAce (DAINIPPON PHARMACEUTICAL CO., LTD.), mouse RBP4 or a sample (100 μL) was added and the plate was stood at room temperature for 2 hr. After washing with PBS-0.5% Tween 20, HRP-labeled anti-RBP4 antibody (prepared by labeling RBP4 polyclonal antibody (Hokudo Co., Ltd) with HRP (DOJINDO LABORATORIES)) was added by 100 μL, and the plate was stood at room temperature for 1 hr. After washing, TMB (Dako Cytomations) was added, and the mixture was stood at room temperature for 20 min to allow color development, and the reaction was quenched with 2N sulfuric acid. Thereafter, the absorbance at A450 nm was measured on a platereader. The amount of change from the initial value of each animal was determined as a relative value from the control group (% of initial/Control) at each time point. The results are shown in the following in mean±standard deviation (n=5).

O=C(O)CCC1CCC(c2cc(C(F)(F)F)cc(C(F)(F)F)c2)O1 (racemic) [Example 34, 3-{5-[3,5-bis(trifluoromethyl)phenyl]tetrahydrofuran-2-yl}propanoic acid]
blood RBP4 concentration (in words) (Zucker fa/fa rats): significant decrease | blood glucose level (in words) (Zucker fa/fa rats): significant decrease | glycated hemoglobin change (in words) (Zucker fa/fa rats): significant decrease | blood glucose level (Zucker fa/fa rats; 24 hr after final administration, mean±SD n=6): 157.2 ± 50.6 mg/dL | glycated hemoglobin change (%) (Zucker fa/fa rats; value after minus before administration, mean±SD n=6): −1.72 ± 0.52% | RBP4 (Zucker fa/fa rats; plasma, 24 hr after final administration, mean±SD n=6): 5.2 ± 0.2 µg/mL | IC50 (human RBP4): 26 nM | RBP4 (% of initial/Control) 0 hr later (RBP4): 100.0 ± 5.6 % of initial/Control | RBP4 (% of initial/Control) 4 hr later (RBP4): 37.4 ± 2.4 % of initial/Control | RBP4 (% of initial/Control) 7 hr later (RBP4): 34.8 ± 2.6 % of initial/Control | RBP4 (% of initial/Control) 24 hr later (RBP4): 107.4 ± 15.3 % of initial/Control

O=C(O)CSC1CCN(c2cc(C(F)(F)F)cc(C(F)(F)F)c2)C1 (single isomer, unassigned) [Example 10, ({1-[3,5-bis(trifluoromethyl)phenyl]pyrrolidin-3-yl}sulfanyl)acetic acid]
IC50 (human RBP4): 27 nM

O=C(O)CSC1CCN(c2cc(C(F)(F)F)cc(C(F)(F)F)c2)C1 (single isomer, unassigned) [Example 11, ({1-[3,5-bis(trifluoromethyl)phenyl]pyrrolidin-3-yl}sulfanyl)acetic acid]
IC50 (human RBP4): 13 nM

O=C(O)CSC1CCN(c2cc(C(F)(F)F)cc(C(F)(F)F)c2)C1 (stereo not shown) [Example 1, ({1-[3,5-bis(trifluoromethyl)phenyl]pyrrolidin-3-yl}sulfanyl)acetic acid]
IC50 (human RBP4): 45 nM | RBP4 (% of initial/Control) 0 hr later (RBP4): 100 ± 20.2 % of initial/Control | RBP4 (% of initial/Control) 4 hr later (RBP4): 42.5 ± 3.3 % of initial/Control | RBP4 (% of initial/Control) 7 hr later (RBP4): 36.0 ± 3.2 % of initial/Control | RBP4 (% of initial/Control) 24 hr later (RBP4): 73.8 ± 19.3 % of initial/Control

O=C(O)C[S+]([O-])C1CCN(c2cc(C(F)(F)F)cc(C(F)(F)F)c2)C1 (stereo not shown) [Example 2, ({1-[3,5-bis(trifluoromethyl)phenyl]pyrrolidin-3-yl}sulfinyl)acetic acid]
IC50 (human RBP4): 38 nM

O=C(O)CCC1CCN(c2ccc(Cl)c(C(F)(F)F)c2)C1 (stereo not shown) [Example 13, 3-{1-[4-chloro-3-(trifluoromethyl)phenyl]pyrrolidin-3-yl}propanoic acid]
IC50 (human RBP4): 26 nM | RBP4 (% of initial/Control) 0 hr later (RBP4): 100.0 ± 10.9 % of initial/Control | RBP4 (% of initial/Control) 4 hr later (RBP4): 54.5 ± 1.2 % of initial/Control | RBP4 (% of initial/Control) 7 hr later (RBP4): 56.5 ± 2.5 % of initial/Control | RBP4 (% of initial/Control) 24 hr later (RBP4): 106.6 ± 3.9 % of initial/Control

O=C(O)CCC1CCN(c2cccc(C(F)(F)F)c2Cl)C1 (stereo not shown) [Example 14, 3-{1-[2-chloro-3-(trifluoromethyl)phenyl]pyrrolidin-3-yl}propanoic acid]
IC50 (human RBP4): 39 nM

O=C(O)CCN1CCN(c2cc(C(F)(F)F)cc(C(F)(F)F)c2)C1=O [Example 15, 3-{3-[3,5-bis(trifluoromethyl)phenyl]-2-oxoimidazolidin-1-yl}propanoic acid]
IC50 (human RBP4): 320 nM | RBP4 (% of initial/Control) 0 hr later (RBP4): 100.0 ± 4.4 % of initial/Control | RBP4 (% of initial/Control) 4 hr later (RBP4): 51.0 ± 1.4 % of initial/Control | RBP4 (% of initial/Control) 7 hr later (RBP4): 49.0 ± 1.1 % of initial/Control | RBP4 (% of initial/Control) 24 hr later (RBP4): 58.2 ± 2.7 % of initial/Control

O=C(O)COC1CCN(c2ccc(Cl)c(C(F)(F)F)c2)C1 (stereo not shown) [Example 27, calcium ({1-[4-chloro-3-(trifluoromethyl)phenyl]pyrrolidin-3-yl}oxy)acetate]
IC50 (human RBP4): 140 nM | RBP4 (% of initial/Control) 0 hr later (RBP4): 100.0 ± 2.1 % of initial/Control | RBP4 (% of initial/Control) 4 hr later (RBP4): 56.2 ± 1.7 % of initial/Control | RBP4 (% of initial/Control) 7 hr later (RBP4): 56.0 ± 1.6 % of initial/Control | RBP4 (% of initial/Control) 24 hr later (RBP4): 59.6 ± 2.1 % of initial/Control

O=C(O)CN1CC(c2cc(C(F)(F)F)cc(C(F)(F)F)c2)CC1=O (stereo not shown) [Example 48, {4-[3,5-bis(trifluoromethyl)phenyl]-2-oxopyrrolidin-1-yl}acetic acid]
IC50 (human RBP4): 210 nM

O=C(O)CCSC1CCN(c2cc(C(F)(F)F)cc(C(F)(F)F)c2)C1 (stereo not shown) [Example 50, 3-({1-[3,5-bis(trifluoromethyl)phenyl]pyrrolidin-3-yl}sulfanyl)propanoic acid]
IC50 (human RBP4): 81 nM
